Measured values taken from US10556098B2, “Microneedle array coated with drug composition” (TEIJIN LIMITED, priority 2012, dated 2020).

Assays:
[1] = parameters: species or system SD rat; conditions: rat, in vivo
Description: Additive: 0.5 w/w sodium carboxymethylcellulose ([…] % hydroxypropylcellulose 1000-5000 mPa·s […] Water: 97.75 w/w % The coater shown in FIG. 5 (the volume of a drug aqueous solution: 4 ml) was used. […] After coating said microneedle array with the solution, the microneedle array was dried at room temperature (20-25° C.) for 60 seconds. The hair of the nine-week old male SD rat's abdomen was removed with a hair clipper and a shaver. The microneedle array of FIG. 7 was pressed onto the rat's skin with a finger, and fixed with tape. After one hour, the microneedle array was removed. In order to evaluate the amount of residual desmopressin acetate (the amount remained on the skin surface and the amount attached to the microneedle array), desmopressin acetate was collected as follows. The skin surface was wiped with Kimwipes® impregnated with ethanol, and the amount of the drug collected from the skin was investigated by measuring the drug in the Kimwipes® with a HPLC. The collected microneedle array was immersed in 75% methanol, and the amount of the collected drug was measured with a HPLC.

in vivo = experiment: in vivo; parameters: species or system SD rat; conditions: rat
Description: The hair of the nine-week old male SD rat's abdomen was removed with a hair clipper and a shaver. […] Also, the microneedle array after the administration was immersed in 75% methanol, and the amount of the collected drug was measured with a HPLC.

Needles after 1 hour adhesion C (residual drug on microneedle array) [1]: <0.025 µg
Skin after 1 hour adhesion D (residual drug on skin surface) [1]: <0.025 µg
AUC (in vivo; male, SD, 4.88 ug): 14.3 ng·h/mL
Skin absorption amount (in vivo): >4.83
Transfer into the blood (change in blood levels, FIG. 8) (in vivo): rapidly transferred in the blood
Amount remained on microneedle array (in vivo; 0.5 h): <0.025
Amount remained on skin surface (in vivo; 0.5 h): <0.025
Structure (SMILES): NC(=O)CC[C@@H]1NC(=O)[C@H](Cc2ccccc2)NC(=O)[C@H](Cc2ccc(O)cc2)NC(=O)CCSSC[C@@H](C(=O)N2CCC[C@H]2C(=O)N[C@H](CCCN=C(N)N)C(=O)NCC(N)=O)NC(=O)[C@H](CC(N)=O)NC1=O [desmopressin acetate]
